Test results taken from ChEMBL document CHEMBL5385930, “Synthesis, Structure-Activity Relationship Study, Bioactivity, and Nephrotoxicity Evaluation of the Proposed Structure of the Cyclic Lipodepsipeptide Brevicidine B” (J Nat Prod, 2024).
Values after ≈ are worked out from the molar mass of the structure shown.

How the values were obtained:
[1] = Nephrotoxicity in human Kidney organoid assessed as at 300 uM measured after 48 hrs by bright field imaging analysis; assay type: toxicity, tissue-based
[2] = Nephrotoxicity in human Kidney organoid assessed as deterioration of renal tubule measured after 48 hrs by bright field imaging analysis; assay type: toxicity, tissue-based; conditions: dose 100-1000 µM
Staphylococcus aureus [3] = test: Antibacterial activity against methicillin-resistant Staphylococcus aureus […] assessed as reduction in bacterial growth by microbroth dilution assay; assay type: functional
Enterococcus faecalis = test: Antibacterial activity against vancomycin resistant Enterococcus faecalis V583 assessed as reduction in bacterial growth by microbroth dilution assay; assay type: functional
Escherichia coli [4] = test: Antibacterial activity against Escherichia coli ATCC 25922 assessed as reduction in bacterial growth by microbroth dilution assay; assay type: functional
Pseudomonas aeruginosa = test: Antibacterial activity against Pseudomonas aeruginosa ATCC 27853 assessed as reduction in bacterial growth by microbroth dilution assay; assay type: functional
Staphylococcus aureus [5] = test: Antibacterial activity against Staphylococcus aureus ATCC 25923 assessed as reduction in bacterial growth by microbroth dilution assay; assay type: functional
Klebsiella pneumoniae [6] = test: Antibacterial activity against Klebsiella pneumoniae ATCC 700603 assessed as reduction in bacterial growth by microbroth dilution assay; assay type: functional
Acinetobacter baumannii [7] = test: Antibacterial activity against multidrug resistant Acinetobacter baumannii AB5075 assessed as reduction in bacterial growth by microbroth dilution assay; assay type: functional
Escherichia coli [8] = test: Antibacterial activity against multidrug resistant Escherichia coli MS834 harbouring mcr-1 assessed as reduction in bacterial growth by microbroth dilution assay; assay type: functional
Acinetobacter baumannii [9] = test: Antibacterial activity against Acinetobacter baumannii ATCC 19606 assessed as reduction in bacterial growth by microbroth dilution assay; assay type: functional
Klebsiella pneumoniae [10] = test: Antibacterial activity against pandrug-resistant Klebsiella pneumoniae MS6671 assessed as reduction in bacterial growth by microbroth dilution assay; assay type: functional
Klebsiella pneumoniae [11] = test: Antibacterial activity against Klebsiella pneumoniae ATCC 33495 assessed as reduction in bacterial growth by microbroth dilution assay; assay type: functional
Staphylococcus aureus [12] = test: Antibacterial activity against methicillin-resistant Staphylococcus aureus RA120 assessed as reduction in bacterial growth by microbroth dilution assay; assay type: functional
Staphylococcus aureus [13] = test: Antibacterial activity against methicillin-resistant Staphylococcus aureus EMRSA-15 assessed as reduction in bacterial growth by microbroth dilution assay; assay type: functional
Staphylococcus aureus [14] = test: Antibacterial activity against methicillin-resistant Staphylococcus aureus NCTC1044 assessed as reduction in bacterial growth by microbroth dilution assay; assay type: functional
[15] = Nephrotoxicity in human Kidney organoid assessed as at 100 uM measured after 48 hrs by bright field imaging analysis; assay type: toxicity, tissue-based

Row | Compound | Activity [1] | Activity [2] | MIC (Staphylococcus aureus [3]) | MIC (Enterococcus faecalis) | MIC (Escherichia coli [4]) | MIC (Pseudomonas aeruginosa) | MIC (Staphylococcus aureus [5]) | MIC (Klebsiella pneumoniae [6]) | MIC (Acinetobacter baumannii [7]) | MIC (Escherichia coli [8]) | MIC (Acinetobacter baumannii [9]) | MIC (Klebsiella pneumoniae [10]) | MIC (Klebsiella pneumoniae [11]) | MIC (Staphylococcus aureus [12]) | MIC (Staphylococcus aureus [13]) | MIC (Staphylococcus aureus [14]) | Activity [15]
1 | POLYMYXIN B [listing 1 of 2 here] | Toxic | Dose-Dependent Effect |  |  |  |  |  |  |  |  |  |  |  |  |  |  | 
2 | CCC(C)CCC(=O)N[C@H](CC(N)=O)C(=O)N[C@H](CCCCN)C(=O)N[C@H](Cc1c[nH]c2ccccc12)C(=O)N[C@H](CCCN)C(=O)N[C@@H](CCCN)C(=O)NCC(=O)N[C@H](CCCN)C(=O)N[C@@H](Cc1c[nH]c2ccccc12)C(=O)N[C@@H]1C(=O)N[C@@H]([C@@H](C)CC)C(=O)NCC(=O)N[C@@H](CO)C(=O)O[C@@H]1C (some centres not stated) |  |  | > 32 µg/mL | > 32 µg/mL | > 32 µg/mL | 16 µg/mL (≈ 10.8 µM) | > 32 µg/mL | > 32 µg/mL | > 32 µg/mL | > 32 µg/mL | > 32 µg/mL | > 32 µg/mL | > 32 µg/mL |  |  |  | 
3 | CC1(C)S[C@@H]2[C@H](NC(=O)[C@H](N)c3ccc(O)cc3)C(=O)N2[C@H]1C(=O)O [AMOXICILLIN] |  |  | > 32 µg/mL | 0.5 µg/mL (≈ 1.37 µM) |  |  | 0.25 µg/mL (≈ 0.684 µM) |  |  |  |  |  |  | > 32 µg/mL | > 32 µg/mL | 32 µg/mL (≈ 87.6 µM) | 
4 | POLYMYXIN B [listing 2 of 2 here] |  |  |  |  | 0.125 µg/mL | 1 µg/mL |  | 0.25 µg/mL | 0.5 µg/mL | 4 µg/mL | 0.5 µg/mL | 32 µg/mL | 0.5 µg/mL |  |  |  | 
5 | CCC(C)CCC(=O)N[C@H](CC(N)=O)C(=O)N[C@@H](Cc1ccccc1)C(=O)N[C@H](Cc1c[nH]c2ccccc12)C(=O)N[C@H](CCCN)C(=O)N[C@@H](CCCN)C(=O)NCC(=O)N[C@H](CCCN)C(=O)N[C@@H](Cc1c[nH]c2ccccc12)C(=O)N[C@@H]1C(=O)N[C@@H]([C@@H](C)CC)C(=O)NCC(=O)N[C@@H](CO)C(=O)O[C@@H]1C (some centres not stated) |  |  | > 32 µg/mL | > 32 µg/mL | > 32 µg/mL | > 32 µg/mL | > 32 µg/mL | > 32 µg/mL | > 32 µg/mL | > 32 µg/mL | > 32 µg/mL | > 32 µg/mL | > 32 µg/mL |  |  |  | 
6 | Cc1onc(-c2ccccc2)c1C(=O)N[C@@H]1C(=O)N2[C@@H]1SC(C)(C)[C@@H]2C(=O)O [OXACILLIN] |  |  | 128 µg/mL (≈ 319 µM) |  |  |  |  |  |  |  |  |  |  | 64 µg/mL (≈ 159 µM) | 64 µg/mL (≈ 159 µM) | 64 µg/mL (≈ 159 µM) | 
7 | C[C@@H](O)[C@H]1C(=O)N2C(C(=O)O)=C(S[C@@H]3CN[C@H](C(=O)N(C)C)C3)[C@H](C)[C@H]12 [MEROPENEM] |  |  |  |  | 0.031 µg/mL (≈ 0.0808 µM) | 0.25 µg/mL (≈ 0.652 µM) |  | 0.062 µg/mL (≈ 0.162 µM) | 32 µg/mL (≈ 83.4 µM) | 0.062 µg/mL (≈ 0.162 µM) | 0.5 µg/mL (≈ 1.3 µM) | 32 µg/mL (≈ 83.4 µM) | 0.062 µg/mL (≈ 0.162 µM) |  |  |  | 
8 | CCC(C)CCC(=O)N[C@H](CC(N)=O)C(=O)N[C@H](Cc1ccccc1)C(=O)N[C@H](Cc1c[nH]c2ccccc12)C(=O)N[C@H](CCCN)C(=O)N[C@@H](CCCN)C(=O)NCC(=O)N[C@H](CCCN)C(=O)N[C@@H](Cc1c[nH]c2ccccc12)C(=O)N[C@@H]1C(=O)N[C@@H]([C@@H](C)CC)C(=O)NCC(=O)N[C@@H](CO)C(=O)O[C@@H]1C (some centres not stated) | Toxic | Dose-Dependent Effect | > 32 µg/mL | > 32 µg/mL | 4 µg/mL (≈ 2.66 µM) | 8 µg/mL (≈ 5.32 µM) | > 32 µg/mL | 16 µg/mL (≈ 10.6 µM) | 16 µg/mL (≈ 10.6 µM) | 8 µg/mL (≈ 5.32 µM) | 16 µg/mL (≈ 10.6 µM) | 32 µg/mL (≈ 21.3 µM) | 4 µg/mL (≈ 2.66 µM) | > 32 µg/mL | > 32 µg/mL | > 32 µg/mL | Non-Toxic
